Reference: US20140348819A1, “Methods of Treating Cancer” (Dana-Farber Cancer Institute, Inc., priority 2011, published 2014)

System: six V600E BRAF melanoma cell lines
Experiment: Screening of recombinant RTK ligands for ability to confer resistance to BRAFi (PLX4720) or MEKi (PD184352) (Table 4)
Assay type: cell-based, human
Set-up: ability of recombinant RTK ligand to confer resistance / ability of recombinant RTK ligand to confer resistance (screening value): scale not given here
Description: HGF is the only one that can substantially confer drug resistance to the cell lines.
The complexity of the tumor microenvironment is much greater than an in vitro co-culture system. Therefore, the inventors explored whether the activation of other RTKs could result in a similar resistance as that observed with the activation of MET. To this end, six V600E BRAF melanoma cell lines were tested for their resistance to either BRAFi (PLX4720) or MEKi (PD184352) after the addition of 22 RTK ligands that have the potential of activating almost all known RTKs. […] The activation of a selected subset of these RTKs was confirmed by western blotting and by high throughput tyrosine kinase phosphorylation profiling.

## neuregulin 1
A2058, PD184352 - 1 uM, ligand 1.6 ng/ml
  ability of recombinant RTK ligand to confer resistance: 1.04
A2058, PD184352 - 1 uM, ligand 6.25 ng/ml
  ability of recombinant RTK ligand to confer resistance: 1.08
A2058, PD184352 - 1 uM, ligand 25 ng/ml
  ability of recombinant RTK ligand to confer resistance: 1.14
A2058, PD184352 - 1 uM, ligand 100 ng/ml
  ability of recombinant RTK ligand to confer resistance: 1.18
A2058, PD184352 - 1 uM, ligand 400 ng/ml
  ability of recombinant RTK ligand to confer resistance: 1.27
A2058, PLX4720 - 2 uM, ligand 1.6 ng/ml
  ability of recombinant RTK ligand to confer resistance: 1.05
A2058, PLX4720 - 2 uM, ligand 6.25 ng/ml
  ability of recombinant RTK ligand to confer resistance: 1.07
A2058, PLX4720 - 2 uM, ligand 25 ng/ml
  ability of recombinant RTK ligand to confer resistance: 1.12
A2058, PLX4720 - 2 uM, ligand 100 ng/ml
  ability of recombinant RTK ligand to confer resistance: 1.09
A2058, PLX4720 - 2 uM, ligand 400 ng/ml
  ability of recombinant RTK ligand to confer resistance: 1.22
C32, PD184352 - 1 uM, ligand 1.6 ng/ml
  ability of recombinant RTK ligand to confer resistance: 1.12
C32, PD184352 - 1 uM, ligand 6.25 ng/ml
  ability of recombinant RTK ligand to confer resistance: 1.20
C32, PD184352 - 1 uM, ligand 25 ng/ml
  ability of recombinant RTK ligand to confer resistance: 1.24
C32, PD184352 - 1 uM, ligand 100 ng/ml
  ability of recombinant RTK ligand to confer resistance: 1.52
C32, PD184352 - 1 uM, ligand 400 ng/ml
  ability of recombinant RTK ligand to confer resistance: 1.32
C32, PLX4720 - 2 uM, ligand 1.6 ng/ml
  ability of recombinant RTK ligand to confer resistance: 1.01
C32, PLX4720 - 2 uM, ligand 6.25 ng/ml
  ability of recombinant RTK ligand to confer resistance: 1.07
C32, PLX4720 - 2 uM, ligand 25 ng/ml
  ability of recombinant RTK ligand to confer resistance: 1.10
C32, PLX4720 - 2 uM, ligand 100 ng/ml
  ability of recombinant RTK ligand to confer resistance: 1.20
C32, PLX4720 - 2 uM, ligand 400 ng/ml
  ability of recombinant RTK ligand to confer resistance: 1.22
Colo 829, PD184352 - 1 uM, ligand 1.6 ng/ml
  ability of recombinant RTK ligand to confer resistance: 1.10
Colo 829, PD184352 - 1 uM, ligand 6.25 ng/ml
  ability of recombinant RTK ligand to confer resistance: 1.04
Colo 829, PD184352 - 1 uM, ligand 25 ng/ml
  ability of recombinant RTK ligand to confer resistance: 1.11
Colo 829, PD184352 - 1 uM, ligand 100 ng/ml
  ability of recombinant RTK ligand to confer resistance: 1.37
Colo 829, PD184352 - 1 uM, ligand 400 ng/ml
  ability of recombinant RTK ligand to confer resistance: 1.21
Colo 829, PLX4720 - 2 uM, ligand 1.6 ng/ml
  ability of recombinant RTK ligand to confer resistance: 0.03
Colo 829, PLX4720 - 2 uM, ligand 6.25 ng/ml
  ability of recombinant RTK ligand to confer resistance: 0.98
Colo 829, PLX4720 - 2 uM, ligand 25 ng/ml
  ability of recombinant RTK ligand to confer resistance: 1.06
Colo 829, PLX4720 - 2 uM, ligand 100 ng/ml
  ability of recombinant RTK ligand to confer resistance: 1.24
Colo 829, PLX4720 - 2 uM, ligand 400 ng/ml
  ability of recombinant RTK ligand to confer resistance: 1.17
G-361, PD184352 - 1 uM, ligand 1.6 ng/ml
  ability of recombinant RTK ligand to confer resistance: 0.93
G-361, PD184352 - 1 uM, ligand 6.25 ng/ml
  ability of recombinant RTK ligand to confer resistance: 0.96
G-361, PD184352 - 1 uM, ligand 25 ng/ml
  ability of recombinant RTK ligand to confer resistance: 0.98
G-361, PD184352 - 1 uM, ligand 100 ng/ml
  ability of recombinant RTK ligand to confer resistance: 1.01
G-361, PD184352 - 1 uM, ligand 400 ng/ml
  ability of recombinant RTK ligand to confer resistance: 1.17
G-361, PLX4720 - 2 uM, ligand 1.6 ng/ml
  ability of recombinant RTK ligand to confer resistance: 0.87
G-361, PLX4720 - 2 uM, ligand 6.25 ng/ml
  ability of recombinant RTK ligand to confer resistance: 1.06
G-361, PLX4720 - 2 uM, ligand 25 ng/ml
  ability of recombinant RTK ligand to confer resistance: 0.93
G-361, PLX4720 - 2 uM, ligand 100 ng/ml
  ability of recombinant RTK ligand to confer resistance: 0.99
G-361, PLX4720 - 2 uM, ligand 400 ng/ml
  ability of recombinant RTK ligand to confer resistance: 1.14
SK-MEL-5, PD184352 - 1 uM, ligand 1.6 ng/ml
  ability of recombinant RTK ligand to confer resistance: 0.96
SK-MEL-5, PD184352 - 1 uM, ligand 6.25 ng/ml
  ability of recombinant RTK ligand to confer resistance: 0.97
SK-MEL-5, PD184352 - 1 uM, ligand 25 ng/ml
  ability of recombinant RTK ligand to confer resistance: 1.01
SK-MEL-5, PD184352 - 1 uM, ligand 100 ng/ml
  ability of recombinant RTK ligand to confer resistance: 1.06
SK-MEL-5, PD184352 - 1 uM, ligand 400 ng/ml
  ability of recombinant RTK ligand to confer resistance: 1.07
SK-MEL-5, PLX4720 - 2 uM, ligand 1.6 ng/ml
  ability of recombinant RTK ligand to confer resistance: 0.94
SK-MEL-5, PLX4720 - 2 uM, ligand 6.25 ng/ml
  ability of recombinant RTK ligand to confer resistance: 0.91
SK-MEL-5, PLX4720 - 2 uM, ligand 25 ng/ml
  ability of recombinant RTK ligand to confer resistance: 0.98
SK-MEL-5, PLX4720 - 2 uM, ligand 100 ng/ml
  ability of recombinant RTK ligand to confer resistance: 1.04
SK-MEL-5, PLX4720 - 2 uM, ligand 400 ng/ml
  ability of recombinant RTK ligand to confer resistance: 0.96
SK-MEL-28, PD184352 - 1 uM, ligand 1.6 ng/ml
  ability of recombinant RTK ligand to confer resistance: 1.09
SK-MEL-28, PD184352 - 1 uM, ligand 6.25 ng/ml
  ability of recombinant RTK ligand to confer resistance: 1.08
SK-MEL-28, PD184352 - 1 uM, ligand 25 ng/ml
  ability of recombinant RTK ligand to confer resistance: 1.05
SK-MEL-28, PD184352 - 1 uM, ligand 100 ng/ml
  ability of recombinant RTK ligand to confer resistance: 1.08
SK-MEL-28, PD184352 - 1 uM, ligand 400 ng/ml
  ability of recombinant RTK ligand to confer resistance: 1.22
SK-MEL-28, PLX4720 - 2 uM, ligand 1.6 ng/ml
  ability of recombinant RTK ligand to confer resistance: 0.92
SK-MEL-28, PLX4720 - 2 uM, ligand 6.25 ng/ml
  ability of recombinant RTK ligand to confer resistance: 1.18
SK-MEL-28, PLX4720 - 2 uM, ligand 25 ng/ml
  ability of recombinant RTK ligand to confer resistance: 1.09
SK-MEL-28, PLX4720 - 2 uM, ligand 100 ng/ml
  ability of recombinant RTK ligand to confer resistance: 1.09
SK-MEL-28, PLX4720 - 2 uM, ligand 400 ng/ml
  ability of recombinant RTK ligand to confer resistance: 1.19
